How the values were obtained:
HeLa cells [1] = assay: Cytoprotection from ER stress (tunicamycin), cell viability by WST-8; assay type: cell-based; design: key to Cytoprotection from ER stress compared to guanabenz: +: lower cytoprotective effect compared to Guanabenz; ++: similar cytoprotective effect compared to Guanabenz; +++: higher cytoprotective effect compared to Guanabenz; conditions: HeLa cells, 6 hour exposure to tunicamycin 5 μg/mL, compounds 0.5-10 μM, viability 48 h or 72 h
Source text: Cytoprotection against ER stress can be measured by a suitable assay. For example, cytoprotection can be measured in HeLa cells in which ER stress is elicited by the addition of media containing tunicamycin, a mixture of homologous nucleoside antibiotics that inhibits the UDP-HexNAc: polyprenol-P HexNAc-1-P family of enzymes and is used to induce unfolded protein response. Cell viability can be detected in the presence and absence of inhibitor compounds after a set period of time, by measuring the reduction of WST-8 into formazan using a standard cell viability kit (such as Cell Viability Counting Kit-8 from Dojindo). Cytoprotection from ER stress is measured in terms of the percentage increase in viable cells (relative to control) after ER stress. Further details of a suitable assay are set forth in the accompanying Examples section.
This assay is described in Tsaytler et al. (Science 2011). HeLa Cells were cultured in Eagle's Minimum Essential Medium (EMEM) supplemented with Glutamine, Sodium Pyruvate, Non-Essential Amino Acids, Penicillin and Streptomycin containing 10% Foetal Bovine Serum (FBS), at 37° C. in 5% CO2 atmosphere. Cells were plated in 96 well plates at a density of 17,000 cells/mL the day before the treatment. ER stress was elicited by addition of 5 μg/mL tunicamycin (Sigma-Aldrich) together with PPP1R15A inhibitors (0.5-10 μM). Media were changed 6h later with fresh media and the cytoprotection was maintained by the addition of PPP1R15A inhibitors (0.5-10 μM). Cell viability was assessed by measuring the reduction of WST-8 into formazan using Cell Counting Kit-8 (Sigma) according to the supplier's recommendation, 48 h or 72h after tunicamycin treatment. Cytoprotection from ER stress is measured in terms of cytoprotective potency effect compared to the reference compound Guanabenz (Tsaytler et al., Science 2011) after ER stress: • ‘+’ no cytoprotective effect; • ‘+’ lower cytoprotective effect compared to Guanabenz; • ‘++’ similar cytoprotective effect compared to Guanabenz; • ‘+++’ higher cytoprotective effect compared to Guanabenz.
Table 1 summarizes the results of cytoprotective effect of different compounds of the invention, compared to guanabenz, after the stress induced by a 6 hour exposure of tunicamycin.

human alpha2A receptor = molecular target: T1, human alpha2A receptor (Homo sapiens, UniProt P08913); assay: Functional GPCR assay for adrenergic α2A receptor (CellKey detection method); assay type: cell-based; conditions: agonist activity, CHO cells expressing human alpha2A receptor, impedance (CellKey); read-out: Functional adrenergic alpha2 receptor assay EC50
T1 construct: CHO cells endogenously expressing human alpha2A receptor; endogenous in cells; host or cells: CHO cells
T1 sequence (P08913 1-465): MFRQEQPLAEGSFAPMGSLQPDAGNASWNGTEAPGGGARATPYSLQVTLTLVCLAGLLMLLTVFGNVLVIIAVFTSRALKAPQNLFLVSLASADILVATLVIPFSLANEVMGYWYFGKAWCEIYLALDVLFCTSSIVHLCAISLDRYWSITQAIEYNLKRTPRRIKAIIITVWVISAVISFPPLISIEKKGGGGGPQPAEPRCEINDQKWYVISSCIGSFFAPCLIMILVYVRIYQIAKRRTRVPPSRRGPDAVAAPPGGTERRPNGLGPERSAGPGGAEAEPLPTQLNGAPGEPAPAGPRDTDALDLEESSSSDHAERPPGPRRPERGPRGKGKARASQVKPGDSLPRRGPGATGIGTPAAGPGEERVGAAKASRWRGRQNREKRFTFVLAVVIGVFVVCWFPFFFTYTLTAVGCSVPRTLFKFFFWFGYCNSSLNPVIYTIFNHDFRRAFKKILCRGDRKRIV
Method: The agonist activity of compounds was evaluated on CHO cells […] expressing human alpha2A receptor and was determined by measuring their effects on impedance modulation using the CellKey detection method. Cells were seeded onto 96-well plate at density of 6×10^4 cells/well in HBSS buffer (Invitrogen)+20 mM HEPES (Invitrogen) with 0.1% BSA and are allowed to equilibrate for 60 min at 28° C. before the start of the experiment. Plates were placed onto the system and measurements were made at a temperature of 28° C. Solutions were added simultaneously to all 96 wells using an integrated fluidics system: HBSS (basal control), reference agonist at 100 nM (stimulated control), reference agonist (EC50 determination) or the test compounds. Impedance measurements are monitored for 10 minutes after ligand addition. The standard reference agonist is epinephrine, which is tested in each experiment at several concentrations to generate a concentration-response curve from which its EC50 value is calculated.
Dose-response data from test compounds were analysed with Hill software using non-linear regression analysis of the concentration-response curves generated with mean replicate values using Hill equation curve fitting.

Min6 cells = assay: Protection against accumulation of misfold prone Insulin Akita; assay type: cell-based; conditions: Min6 cells nucleofected with Insulin Akita, viability 9 days after treatment
Method: Min6 cells were nucleofected with Insulin^Akita mutant constructs and seeded in 96 well-plates at 300,000 cells/mL and 24h later, cells were treated with molecules or left untreated. As a control, cells were nucleofected with non-relevant plasmid. 6 days later, a selective agent was added (G418). Cell viability was assessed by measuring the reduction of WST-8 into formazan using Cell Counting Kit-8 (Sigma) according to the supplier's recommendation, 9 days after treatment.

Min6 insulinoma cell = assay: Min6 cell line cytoprotection from ER stress (tunicamycin); assay type: cell-based; conditions: 6 hour exposure to tunicamycin 2.5 μg/mL, different concentrations, viability 72h
Method: (§1) Cells were plated in 96 well plates at a density of 0.5.10^6 cells/mL for Min6 cell line, 0,4.10^6 cells/mL for INS1 cell line the day before the treatment. ER stress was elicited by addition of 2.5 μg/mL tunicamycin (Sigma Aldrich) together with phosphatases inhibitors. Media were changed 6h later with fresh media and the cytoprotection was maintained by the addition of phosphatases inhibitors. Cell viability was assessed by measuring the reduction of WST-8 into formazan using Cell Counting Kit-8 (Sigma) according to the supplier's recommendation, 72h after tunicamycin treatment.

INS1 insulinoma cell = assay: INS1 cell line cytoprotection from ER stress (tunicamycin); assay type: cell-based; conditions: 6 hour exposure to tunicamycin 2.5 μg/mL, different concentrations, viability 72h
Method: as §1

[2] = test system: mouse embryonic fibroblasts lipofected with poly I:C; assay: In vitro inflammation/infection model: poly I:C induced mouse embryonic fibroblasts; assay type: cell-based; conditions: 25 μM, 6h, IFN-beta ELISA in culture supernatants
Method: Mouse Embryonic Fibroblasts (MEFs) were lipofected with poly I:C and treated with […] compounds of the invention (25 μM) for 6h. After 6h of culture, elF2alpha-phosphorylation (elF2a-P) and PPP1R15A (GADD34) expression was monitored by western blotting, while type-1 Interferon(IFN)-beta production was quantified in culture supernatants by ELISA. Control (nt) and poly I:C/DMSO are respectively negative and positive controls. Poly I:C (polyinosinic:polycytidylic acid or polyinosinic-polycytidylic acid sodium salt) is an immunostimulant used to simulate viral infections. Poly I:C which is structurally similar to double-stranded RNA, is known to interact with toll-like receptor 3 which is expressed in the intracellular compartments of B-cells and dendritic cells. Guanabenz (25 μM) was used as reference inhibitory compound.
MEFs were cultured in DMEM, 10% FCS (HyClone, Perbio), 100 units/ml penicillin, 100 μg/ml streptomycin, 2 mM glutamine, 1× MEM non-essential amino acids and 50 μM 2-mercaptoethanol. MEFS were treated for the indicated time with 10 μg/ml poly I:C (InvivoGen) in combination with lipofectamine 2000 (Invitrogen).
Cells were lysed in 1% Triton X-100, 50 mM Hepes, 10 mM NaCl, 2.5 mM MgCl2, 2 mM EDTA, 10% glycerol, supplemented with Complete Mini Protease Inhibitor Cocktail Tablets (Roche). Protein quantification was performed using the BCA Protein Assay (Pierce). 25-50 μg of Triton X-100-soluble material was loaded on 2%-12% gradient or 8% SDS-PAGE before immunoblotting and chemi-luminescence detection (SuperSignal West Pico Chemi-luminescent Substrate, Pierce). Rabbit polyclonal antibodies recognizing GADD34 (C-19) were from Santa Cruz Biotechnology and anti-elF2alpha[pS^52] were from Invitrogen.
IFN-beta quantification in culture supernatant was performed using the Mouse Interferon Beta ELISA kit (PBL Interferon Source) according to manufacturer instructions.
Normal response of MEFs to poly I:C is characterized by PPP1R15A expression, increase in elF2alpha-P (variable in time and related to the levels PPP1R15A expression) mediated by PKR activation and type-I IFN production (range 500 to 700 pg/ml). Knock out PPP1R15A MEFs are unable to produce this cytokine in response to poly I:C.
The potency of compounds of the invention to inhibit PPP1R15A was evaluated by measuring the increase of elF2alpha phosphorylation, the decrease of PPP1R15A expression due to its own pharmacological inhibition resulting in general protein synthesis inhibition and type-I IFN production.

HeLa cells [3] = conditions: tunicamycin, Tsaytler et al., Science 2011, cited from earlier work

CCONC(=N)N/N=C/c1ccncc1Cl [Compound 16, 2-[(3-chloropyridin-4-yl)methylidene]-N-ethoxyhydrazinecarboximidamide]
Cytoprotection from ER stress compared to guanabenz (HeLa cells [1]): +
EC50 (human alpha2A receptor): > 33300 nM
prevention of cell death associated with accumulation of misfold prone Insulin Akita (FIG. 6) (Min6 cells): prevent cell death
prevention of Min6 insulinoma cell death (FIG. 7) (Min6 insulinoma cell): prevent Min6 insulinoma cell death
prevention of INS1 insulinoma cell death (FIG. 8) (INS1 insulinoma cell): prevent INS1 insulinoma cell death
prevention of type-I IFN production (FIG. 9) [2]: prevent type-I IFN production

Clc1cccc(Cl)c1N=C1NCCN1 [clonidine]
protection of cells from cytotoxic ER stress (HeLa cells [3]): Neither the α2-adrenergic receptor agonist clonidine, nor the α2-adrenergic receptor antagonist efaroxan protected cells

NC(N)=N/N=C/c1c(Cl)cccc1Cl [guanabenz, 2-(2,6-dichlorobenzylidene)hydrazinecarboximidamide]
EC50 (HeLa cells [3]; read-out: median effective concentration, survival of HeLa cells exposed to ER stress): ~400 nM

Reference: patent US11084783B2, “O-alkyl-benzylideneguanidine derivatives and therapeutic use for the treatment of disorders associated with an accumulation of misfolded proteins” (INFLECTIS BIOSCIENCE, priority 2014, dated 2021)
